The target in this assay is T1, human CPT1A (Homo sapiens, UniProt P50416).
T1 construct: made in house; host or cells: Saccharomyces cerevisiae (pESC-trp) or cultured mammalian cells (pCDNA3.1); mitochondrial extract
T1 sequence (P50416 1-773): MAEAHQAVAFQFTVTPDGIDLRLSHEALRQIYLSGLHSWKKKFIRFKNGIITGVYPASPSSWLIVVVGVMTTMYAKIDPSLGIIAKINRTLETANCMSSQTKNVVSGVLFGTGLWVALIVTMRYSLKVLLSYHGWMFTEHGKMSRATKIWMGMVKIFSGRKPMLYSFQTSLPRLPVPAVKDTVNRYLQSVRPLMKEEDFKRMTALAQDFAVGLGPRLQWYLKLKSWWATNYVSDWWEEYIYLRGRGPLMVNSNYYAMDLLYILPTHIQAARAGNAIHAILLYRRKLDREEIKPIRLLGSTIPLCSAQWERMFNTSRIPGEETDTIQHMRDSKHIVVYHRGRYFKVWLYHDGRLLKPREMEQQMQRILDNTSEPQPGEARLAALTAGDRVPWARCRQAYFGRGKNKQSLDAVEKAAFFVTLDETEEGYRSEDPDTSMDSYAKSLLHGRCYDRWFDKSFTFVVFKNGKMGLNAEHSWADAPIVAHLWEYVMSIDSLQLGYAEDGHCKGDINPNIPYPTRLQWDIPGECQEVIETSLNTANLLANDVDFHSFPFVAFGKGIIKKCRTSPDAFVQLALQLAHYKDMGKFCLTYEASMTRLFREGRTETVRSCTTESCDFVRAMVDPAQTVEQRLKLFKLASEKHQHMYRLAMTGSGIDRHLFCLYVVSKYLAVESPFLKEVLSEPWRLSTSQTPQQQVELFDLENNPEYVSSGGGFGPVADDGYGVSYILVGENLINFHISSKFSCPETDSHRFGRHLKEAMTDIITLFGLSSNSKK
As to the kind of experiment: Human CPT1A LC/MS assay. To be noted: human CPT1A LC/MS assay, dose response format. The assay is classed as biochemical. The gist of the method: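 Mitochondrial extracts (1.6 μg protein) expressing human CPT1A, preincubated 10 min with compound in 20% DMSO, then reacted 10 min at room temperature with 20 μM palmitoyl-CoA, 50 μM L-carnitine (pH 7.5). Palmitoyl carnitine was quantified by LC/MS against a myristoyl carnitine standard; 16-point, 2-fold titrations gave dose response.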

The results in this text go back to patent US8410150B2, “Inhibitors of carnitine palmitoyltransferase and treating cancer” (University Health Network, priority 2007, dated 2013).

Where a name gives a salt, the structure may show the parent alone. Some results are limits rather than exact numbers.

As a reminder, the IC50 is the concentration that inhibits the measured activity by half. Read a high IC50 as weaker potency. For the compound `Cn1nc(C(F)(F)F)cc1-c1ccc(S(=O)(=O)N[C@H](CC(=O)O)C[N+](C)(C)C)s1` [Example S72, (R)-3-carboxy-N,N,N-trimethyl-2-(5-(1-methyl-3-(trifluoromethyl)-1H-pyrazol-5-yl)thiophene-2-sulfonamido)propan-1-aminium 2,2,2-trifluoroacetate], the half-inhibitory concentration (IC50) fell in the range of 100 to 1000 µM. In the case of `C[N+](C)(C)C[C@@H](CC(=O)[O-])NC(=O)C(F)(F)c1ccccc1` [Example S69, (R)-3-(2,2-difluoro-2-phenylacetamido)-4-(trimethylammonio)butanoate], the concentration for half-maximal inhibition (IC50) was 100 to 1000 µM. Take `C[N+](C)(C)C[C@@H](CC(=O)O)NC(=O)c1ccc(NS(=O)(=O)c2cccs2)cc1` [Example S2, (R)-3-(4-(thiophene-2-sulfonamido)benzamido)-4-(trimethylammonio)-butanoate]: the half-maximal inhibitory concentration (IC50) was in the range of 100 to 1000 µM. On to `CCOc1ccc(S(=O)(=O)N[C@H](CC(=O)O)C[N+](C)(C)C)cc1NC(=O)N1CCOCC1` [Example S74, (R)-3-carboxy-2-(4-ethoxy-3-(morpholine-4-carboxamido)phenyl-sulfonamido)-N,N,N-trimethylpropan-1-aminium 2,2,2-trifluoroacetate], for which the IC50 was more than 2500 µM. `C[N+](C)(C)C[C@@H](CC(=O)O)NS(=O)(=O)c1ccc(CCc2ccccc2)s1` [Example S79, (R)-3-carboxy-N,N,N-trimethyl-2-(5-phenethylthiophene-2-sulfonamido)-propan-1-aminium 2,2,2-trifluoroacetate] came in with an IC50 of 10 to 100 µM. In the case of `CCCCCCc1ccc(CCc2ccc(C(=O)N[C@H](CC(=O)O)C[N+](C)(C)C)o2)s1` [Example S119, (R)-3-(5-(2-(5-hexylthiophen-2-yl)ethyl)furan-2-carboxamido)-4-(trimethylammonio)butanoate], the IC50 is not above 1 µM. `C[N+](C)(C)C[C@@H](CC(=O)O)NC(=O)c1ccc(Br)s1` [Example S95, (R)-2-(5-bromothiophene-2-carboxamido)-3-carboxy-N,N,N-trimethyl-propan-1-aminium trifluoroacetate] showed a 50% inhibitory concentration (IC50) of 10 to 100 µM. The compound `CCCCCCCCOC(=O)Nc1ccc(S(=O)(=O)N[C@H](CC(=O)O)C[N+](C)(C)C)cc1` [Example S73, (R)-3-carboxy-N,N,N-trimethyl-2-(4-(octyloxycarbonylamino)phenyl-sulfonamido)propan-1-aminium 2,2,2-trifluoroacetate] yielded an IC50 of 10 to 100 µM. `CCCc1ccc(OCc2ccc(C(=O)N[C@H](CC(=O)[O-])C[N+](C)(C)C)o2)c(OC)c1` [Example S55, (R)-3-(5-((2-methoxy-4-propylphenoxy)methyl)furan-2-carboxamido)-4-(trimethylammonio)butanoate] gave an IC50 of 10 to 100 µM. In turn, `C[N+](C)(C)C[C@@H](CC(=O)O)NC(=O)Nc1ccccc1I` [Example S99, (R)-3-carboxy-2-(3-(2-iodophenyl)ureido)-N,N,N-trimethylpropan-1-aminium] gave a concentration for half-maximal inhibition (IC50) of more than 2500 µM. The value for `CCOc1ccc(OCc2ccc(C(=O)N[C@H](CC(=O)[O-])C[N+](C)(C)C)o2)cc1` [Example S68, (R)-3-(5-((4-ethoxyphenoxy)methyl)furan-2-carboxamido)-4-(trimethyl-ammonio)butanoate] was not above 1 µM; that for `CCCCCCCCc1ccc(N(C)S(=O)(=O)N[C@H](CC(=O)O)C[N+](C)(C)C)cc1` [Example S93, (R)-3-(N-methyl-N-(4-octylphenyl)sulfamoylamino)-4-(trimethylammonio)-butanoate] was 10 to 100 µM. For `CCCCCc1ccc(CCc2ccc(C(=O)N[C@H](CC(=O)O)C[N+](C)(C)C)s2)cc1` [Example S102, (R)-3-carboxy-N,N,N-trimethyl-2-(5-(4-pentylphenethyl)thiophene-2-carboxamido)propan-1-aminium 2,2,2-trifluoroacetate], the IC50 was not above 1 µM. `C[N+](C)(C)C[C@@H](CC(=O)O)NC(=O)c1cccc(-c2cc[nH]n2)c1` [Example S57, (R)-3-(3-(1H-pyrazol-3-yl)benzamido)-4-(trimethylammonio)butanoate trifluoroacetate]: the half-inhibitory concentration (IC50) is more than 2500 µM. The compound `C[N+](C)(C)C[C@@H](CC(=O)[O-])NC(=O)c1cccc(C#Cc2ccccc2)c1` [Example S48, (R)-3-(3-(phenylethynyl)benzamido)-4-(trimethylammonio)butanoate] came in with an IC50 of 100 to 1000 µM. As for `Cc1ccoc1C(=O)Nc1ccc(C(=O)N[C@H](CC(=O)[O-])C[N+](C)(C)C)cc1` [Example S5, (R)-3-(4-(3-methylfuran-2-carboxamido)benzamido)-4-(trimethylammonio)-butanoate], the figure is 100 to 1000 µM. The compound `Cc1nc(-c2ccccc2)sc1NC(=O)N[C@H](CC(=O)[O-])C[N+](C)(C)C` [Example S9, (R)-3-(3-(4-methyl-2-phenylthiazol-5-yl)ureido)-4-(trimethylammonio)-butanoate] returned a concentration for half-maximal inhibition (IC50) of 1000 to 2500 µM. In turn, `C[N+](C)(C)C[C@@H](CC(=O)O)NC(=O)c1ccc(C#Cc2ccsc2)s1` [Example S97, (R)-3-carboxy-N,N,N-trimethyl-2-(5-(thiophen-3-ylethynyl)thiophene-2-carboxamido)propan-1-aminium 2,2,2-trifluoroacetate] yielded an IC50 not above 1 µM. On to `CCCCC#Cc1ccc(C(=O)N[C@H](CC(=O)[O-])C[N+](C)(C)C)o1` [Example S4, (R)-3-(5-(hex-1-ynyl)furan-2-carboxamido)-4-(trimethylammonio)butanoate], for which the IC50 fell in the range of 10 to 100 µM. As for `Cc1ccc(CCc2ccc(S(=O)(=O)N[C@H](CC(=O)O)C[N+](C)(C)C)s2)cc1` [Example S81, (R)-3-carboxy-N,N,N-trimethyl-2-(5-(4-methylphenethyl)thiophene-2-sulfonamido)propan-1-aminium 2,2,2-trifluoroacetate], the figure is 1 to 10 µM; as for `Cc1ccc(C#Cc2ccc(S(=O)(=O)N[C@H](CC(=O)O)C[N+](C)(C)C)s2)cc1` [Example S80, (R)-3-carboxy-N,N,N-trimethyl-2-(5-(p-tolylethynyl)thiophene-2-sulfonamido)propan-1-aminium 2,2,2-trifluoroacetate], 10 to 100 µM; as for `Cc1cccc(OCc2ccc(C(=O)N[C@H](CC(=O)[O-])C[N+](C)(C)C)o2)c1` [Example S70, (R)-3-(5-(m-tolyloxymethyl)furan-2-carboxamido)-4-(trimethylammonio)-butanoate], 1 to 10 µM. The value for `C[N+](C)(C)C[C@@H](CC(=O)[O-])NC(=O)c1ccc(OCC(F)(F)F)nc1` [Example S52, (R)-3-(6-(2,2,2-trifluoroethoxy)nicotinamido)-4-(trimethylammonio)butanoate] was 1000 to 2500 µM; that for `CCCCCc1ccc(C#Cc2ccc(S(=O)(=O)N[C@H](CC(=O)O)C[N+](C)(C)C)s2)cc1` [Example S82, (R)-3-carboxy-N,N,N-trimethyl-2-(5-((4-pentylphenyl)-ethynyl)thiophene-2-sulfonamido)propan-1-aminium 2,2,2-trifluoroacetate] was 1 to 10 µM; that for `C[N+](C)(C)C[C@@H](CC(=O)[O-])NC(=O)c1ccc(Br)o1` [Example S114, (R)-3-(5-bromofuran-2-carboxamido)-4-(trimethylammonio)butanoate] was 100 to 1000 µM. On to `C[N+](C)(C)C[C@@H](CC(=O)O)NS(=O)(=O)c1ccc(Oc2ccccc2)nc1` [Example S19, (R)-3-carboxy-N,N,N-trimethyl-2-(6-phenoxypyridine-3-sulfonamido)propan-1-aminium 2,2,2-trifluoroacetate], for which the half-inhibitory concentration (IC50) is 100 to 1000 µM.

For `Cc1cccc(C#Cc2ccc(S(=O)(=O)N[C@H](CC(=O)O)C[N+](C)(C)C)s2)c1` [Example S76, (R)-3-carboxy-N,N,N-trimethyl-2-(5-(m-tolylethynyl)thiophene-2-sulfonamido)propan-1-aminium 2,2,2-trifluoroacetate], the IC50 lay in the range of 100 to 1000 µM.
